Data on 32 substances can be found in patent US10280205B2, “Method for treating cancer with an activated T lymphocyte that selectively recognizes a cancer cell consisting of specific peptide” (immatics biotechnologies GmbH, priority 2015, dated 2019).

The target in one test is HLA-A*02:01 (Homo sapiens, UniProt P04439, D140Y/D185E/D98H/E176V/E277Q/G131W/G231S/I119V/I121R/I166T/I218V/L300P/L318F/N151K/N90K/P208A/P217A/Q86G/Q94H/R138H/R169H/T345S). Description: MHC binding assay: UV-ligand exchange with beta2m ELISA (exchange yield). As to conditions: binding to HLA-A*02:01, β2m ELISA. In short, it runs like this: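 Peptide–HLA-A*02:01 complexes formed by UV-induced exchange of a photocleavable ligand for the test peptide. Exchange products diluted 100-fold and captured on streptavidin-coated plates. Stabilized complexes detected with HRP anti-β2m (1 h, 37° C.) and TMB, A450; exchange yield reported.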

The test system of a further test is CD8+ T cells. Nature of the test: In vitro T-cell priming assay with aAPCs loaded with peptide/MHC complexes and anti-CD28, multimer staining readout (in vitro immunogenicity). It is filed as cell-based, human. As to conditions: for Wells positive [%]: HLA-A*02 restricted peptides; for donors (positive donors, in vitro immunogenicity) / wells (positive wells, in vitro immunogenicity): HLA class I peptides; for donors (positive donors, in vitro immunogenicity): percentage of positive donors among evaluable; for wells (positive wells, in vitro immunogenicity): percentage of positive wells. An excerpt: In order to obtain information regarding the immunogenicity of the TUMAPs of the present invention, the inventors performed investigations using an in vitro T-cell priming assay based on repeated stimulations of CD8+ T cells with artificial antigen presenting cells (aAPCs) loaded with peptide/MHC complexes and anti-CD28 antibody.
In order to perform in vitro stimulations by artificial antigen presenting cells loaded with peptide-MHC complex (pMHC) and anti-CD28 antibody, the inventors first isolated CD8+ T cells from fresh HLA-A*02 leukapheresis products via positive selection using CD8 microbeads (Miltenyi Biotec, Bergisch-Gladbach, Germany) of healthy donors obtained from the University clinics Mannheim, Germany, after informed consent.
PBMCs and isolated CD8+ lymphocytes were incubated in T-cell medium (TCM) until use consisting of RPMI-Glutamax (Invitrogen, Karlsruhe, Germany) supplemented with 10% heat inactivated human AB serum (PAN-Biotech, Aidenbach, Germany), 100 U/ml Penicillin/100 μg/ml Streptomycin (Cambrex, Cologne, Germany), 1 mM sodium pyruvate (CC Pro, Oberdorla, Germany), 20 μg/ml Gentamycin (Cambrex). 2.5 ng/ml IL-7 (PromoCell, Heidelberg, Germany) and 10 U/ml IL-2 (Novartis Pharma, Nurnberg, Germany) were also added to the TCM at this step.
Generation of pMHC/anti-CD28 coated beads, T-cell stimulations and readout was performed in a highly defined in vitro system using four different pMHC molecules per stimulation condition and 8 different pMHC molecules per readout condition.
The purified co-stimulatory mouse IgG2a anti human CD28 Ab 9.3 (Jung et al., 1987) was chemically biotinylated using Sulfo-N-hydroxysuccinimidobiotin as recommended by the manufacturer (Perbio, Bonn, Germany). Beads used were 5.6 μm diameter streptavidin coated polystyrene particles (Bangs Laboratories, Illinois, USA).
pMHC used for positive and negative control stimulations were A*0201/MLA-001 (peptide […] (SEQ ID NO. 664) from modified Melan-A/MART-1) and A*0201/DDX5-001 ([…] from DDX5, SEQ ID NO. 665), respectively.
800.000 beads/200 μl were coated in 96-well plates in the presence of 4×12.5 ng different biotin-pMHC, washed and 600 ng biotin anti-CD28 were added subsequently in a volume of 200 μl. Stimulations were initiated in 96-well plates by co-incubating […] CD8+ T cells with 2×10^5 washed coated beads in 200 μl TCM supplemented with 5 ng/ml IL-12 (PromoCell) for 3 days at 37° C. Half of the medium was then exchanged by fresh TCM supplemented with 80 U/ml IL-2 and incubating was continued for 4 days at 37° C. This stimulation cycle was performed for a total of three times. For the pMHC multimer readout using 8 different pMHC molecules per condition, a two-dimensional combinatorial coding approach was used as previously described (Andersen et al., 2012) with minor modifications encompassing coupling to 5 different fluorochromes. Finally, multimeric analyses were performed by staining the cells with Live/dead near IR dye (Invitrogen, Karlsruhe, Germany), CD8-FITC antibody clone SK1 (BD, Heidelberg, Germany) and fluorescent pMHC multimers. For analysis, a BD LSRII SORP cytometer equipped with appropriate lasers and filters was used. Peptide specific cells were calculated as percentage of total CD8+ cells. Evaluation of multimeric analysis was done using the FlowJo software (Tree Star, Oreg., USA). In vitro priming of specific multimer+ CD8+ lymphocytes was detected by comparing to negative control stimulations.
Exemplary flow cytometry results after TUMAP-specific multimer staining for two peptides of the invention are shown in FIG. 3 together with corresponding negative controls.

Consider “2 (SLLEADPFL; listed as Homo sapiens) [compound 2]”, for which the “Peptide exchange (MHC class I binding score, peptide exchange yield)” value (“Peptide exchange” for short) with HLA-A*02:01 was ““+++” (≥50 = +++)”. Also, in the test with CD8+ T cells, the “Wells positive [%]” value was ““+” (<20% = +)”.
On to “3 (SLASKLTTL; listed as Homo sapiens) [compound 3]”, for which the “Peptide exchange” value with HLA-A*02:01 was ““++++” (≥75% = ++++)”. In the test on CD8+ T cells, the “Wells positive [%]” value is given as ““+” (<20% = +)”.
Take “8 (FTLGNVVGMYL; listed as Homo sapiens) [compound 8]”: the “Peptide exchange” value with HLA-A*02:01 is ““++++” (≥75% = ++++)”. In addition, in the test on CD8+ T cells, the “Wells positive [%]” value is reported as ““+” (<20% = +)”.
For the substance “11 (KIFEMLEGV; listed as Homo sapiens) [compound 11]”, the “Peptide exchange” value with HLA-A*02:01 is ““+++” (≥50 = +++)”. Moreover, the “Wells positive [%]” value in the test with CD8+ T cells is reported as ““+” (<20% = +)”.
On to “36 (YVLEDLEVTV; listed as Homo sapiens) [compound 36]”, for which, in the test with HLA-A*02:01, the “Peptide exchange” value is on record as ““++” (≥20% = ++)”. Moreover, the “Wells positive [%]” value with CD8+ T cells is ““+” (<20% = +)”.
For “38 (FLLEDDIHVS; listed as Homo sapiens) [compound 38]”, in that order: ““+++” (≥50 = +++)” and ““+” (<20% = +)”.
In the case of “48 (ALAELYEDEV; listed as Homo sapiens) [compound 48]”, the “Peptide exchange” value with HLA-A*02:01 is reported as ““+++” (≥50 = +++)”. For the same substance, in the test on CD8+ T cells, the “Wells positive [%]” value was ““+” (<20% = +)”.
As for “56 (KLYEGIPVLL; listed as Homo sapiens) [compound 56]”, the “Peptide exchange” value with HLA-A*02:01 is ““++++” (≥75% = ++++)”. Moreover, in the test with CD8+ T cells, the “Wells positive [%]” value is on record as ““+” (<20% = +)”.
For “60 (SLTIDGIYYV; listed as Homo sapiens) [compound 60]”, in that order: ““++++” (≥75% = ++++)” and ““++++” (>=70% = ++++)”.
For “79 (SLFIGEKAVLL; listed as Homo sapiens) [compound 79]”, in that order: ““+++” (≥50 = +++)” and ““+” (<20% = +)”.
Turning to “113 (GLLPTPLFGV; listed as Homo sapiens) [compound 113]”, the “Peptide exchange” value with HLA-A*02:01 is recorded as ““+++” (≥50 = +++)”. In the test with CD8+ T cells, the “Wells positive [%]” value was ““+” (<20% = +)”.
“118 (KLIDNNINV; listed as Homo sapiens) [compound 118]”: the “Peptide exchange” value with HLA-A*02:01 was ““+++” (≥50 = +++)”. Further, in the test with CD8+ T cells, the “Wells positive [%]” value is given as ““+” (<20% = +)”.
For the substance “141 (YLDFSNNRL; listed as Homo sapiens) [compound 141]”, the “Peptide exchange” value with HLA-A*02:01 is recorded as ““++” (≥20% = ++)”. For the same substance, in the test with CD8+ T cells, the “Wells positive [%]” value is recorded as ““+” (<20% = +)”.
Take “143 (LLLDITPEI; listed as Homo sapiens) [compound 143]”: the “Peptide exchange” value in the test with HLA-A*02:01 is given as ““++++” (≥75% = ++++)”. The “Wells positive [%]” value in the test with CD8+ T cells is recorded as ““+” (<20% = +)”.
Consider “150 (RLWEEGEELEL; listed as Homo sapiens) [compound 150]”, for which the “Peptide exchange” value in the test with HLA-A*02:01 is recorded as ““+++” (≥50 = +++)”. Further, the “Wells positive [%]” value with CD8+ T cells was ““+” (<20% = +)”.
For “166 (YLNHLEPPV; listed as Homo sapiens) [compound 166]”, in that order: ““+++” (≥50 = +++)” and ““++++” (>=70% = ++++)”.
As to “199 (ALQDVPLSSV; listed as Homo sapiens) [compound 199]”, the “Peptide exchange” value with HLA-A*02:01 was ““+++” (≥50 = +++)”. The “Wells positive [%]” value in the test on CD8+ T cells is ““+” (<20% = +)”.
For “247 (VLLPNDLLEKV; listed as Homo sapiens) [compound 247]”, in that order: ““+++” (≥50 = +++)” and ““+” (<20% = +)”.
Take “283 (ALYIGDGYVIHLA; listed as Homo sapiens) [compound 283]”: the “Peptide exchange” value in the test with HLA-A*02:01 was ““+++” (≥50 = +++)”. Further, in the test on CD8+ T cells, the “donors (positive donors, in vitro immunogenicity)” value (from here on “donors”) is on record as “+++ (50%-69% = +++)” and the “wells (positive wells, in vitro immunogenicity)” value is “+ (<20% = +)”.
In the case of “319 (SLEPQIQPV; listed as Homo sapiens) [compound 319]”, the “Peptide exchange” value with HLA-A*02:01 is ““++” (≥20% = ++)”. For the same substance, in the test with CD8+ T cells, the “Wells positive [%]” value was ““+” (<20% = +)”.
As to “384 (ILFANPNIFV; listed as Homo sapiens) [compound 384]”, in the test with HLA-A*02:01, the “Peptide exchange” value was ““+++” (≥50 = +++)”. In addition, in the test with CD8+ T cells, the “Wells positive [%]” value was ““+” (<20% = +)”.
On to “443 (GLWEIENNPTV; listed as Homo sapiens) [compound 443]”, for which, in the test with HLA-A*02:01, the “Peptide exchange” value is given as ““+++” (≥50 = +++)”. The “Wells positive [%]” value in the test on CD8+ T cells was ““+” (<20% = +)”.
As for “460 (AMLEKNYKL; listed as Homo sapiens) [compound 460]”, the “Peptide exchange” value with HLA-A*02:01 is listed as ““++++” (≥75% = ++++)”. Further, the “Wells positive [%]” value with CD8+ T cells was ““+” (<20% = +)”.
As to “489 (KMWEELPEVV; listed as Homo sapiens) [compound 489]”, in the test with HLA-A*02:01, the “Peptide exchange” value is given as ““+++” (≥50 = +++)”. In addition, in the test on CD8+ T cells, the “Wells positive [%]” value was ““+” (<20% = +)”.
For the substance “499 (KIFDIDEAEEGV; listed as Homo sapiens) [compound 499]”, in the test with HLA-A*02:01, the “Peptide exchange” value was ““++” (≥20% = ++)”. Further, the “Wells positive [%]” value with CD8+ T cells is ““+” (<20% = +)”.
For the substance “511 (FLDPYCSASV; listed as Homo sapiens) [compound 511]”, in the test with HLA-A*02:01, the “Peptide exchange” value was ““++” (≥20% = ++)”. Besides, the “Wells positive [%]” value in the test on CD8+ T cells was ““+” (<20% = +)”.
As for “603 (FLIEPEHVNTV; listed as Homo sapiens) [compound 603]”, in the test with HLA-A*02:01, the “Peptide exchange” value is ““++” (≥20% = ++)”. In addition, the “Wells positive [%]” value in the test on CD8+ T cells is recorded as ““+” (<20% = +)”.
As to “648 (LLWGNAIFL; listed as Homo sapiens) [compound 648]”, in the test with CD8+ T cells, the “donors” value is given as “+++ (50%-69% = +++)” and the “wells (positive wells, in vitro immunogenicity)” value was “++ (20%-49% = ++)”.
For “652 (TLWYRAPEV; listed as Homo sapiens) [compound 652]”, in that order: “++++ (>=70% = ++++)” and “+++ (50%-69% = +++)”.
For “659 (ILFPDIIARA; listed as Homo sapiens) [compound 659]”, in that order: “+++ (50%-69% = +++)” and “+ (<20% = +)”.
In the case of “662 (KIQEILTQV; listed as Homo sapiens) [compound 662]”, in the test on CD8+ T cells, the “donors” value is “+++ (50%-69% = +++)” and the “wells (positive wells, in vitro immunogenicity)” value was “+ (<20% = +)”.
Regarding “663 (KIQEMQHFL; listed as Homo sapiens) [compound 663]”, in the test with CD8+ T cells, the “donors” value was “+++ (50%-69% = +++)” and the “wells (positive wells, in vitro immunogenicity)” value is given as “+ (<20% = +)”.
